Tests used:
[1] = molecular target: T1, PKMYT1 (Homo sapiens, UniProt Q99640); assay: ADP-Glo PKMYT1 ATP-depletion assay; details: 50 nM PKMYT1, 13.3 nM CDK1, 88 μM ATP, 120 minutes at RT, read-out: Biochemical IC50
T1 construct: PKMYT1 (93 kD, full length, N-terminal GST tag from Signal Chem); GST (N); purchased Signal Chem
T1 sequence (Q99640 1-499): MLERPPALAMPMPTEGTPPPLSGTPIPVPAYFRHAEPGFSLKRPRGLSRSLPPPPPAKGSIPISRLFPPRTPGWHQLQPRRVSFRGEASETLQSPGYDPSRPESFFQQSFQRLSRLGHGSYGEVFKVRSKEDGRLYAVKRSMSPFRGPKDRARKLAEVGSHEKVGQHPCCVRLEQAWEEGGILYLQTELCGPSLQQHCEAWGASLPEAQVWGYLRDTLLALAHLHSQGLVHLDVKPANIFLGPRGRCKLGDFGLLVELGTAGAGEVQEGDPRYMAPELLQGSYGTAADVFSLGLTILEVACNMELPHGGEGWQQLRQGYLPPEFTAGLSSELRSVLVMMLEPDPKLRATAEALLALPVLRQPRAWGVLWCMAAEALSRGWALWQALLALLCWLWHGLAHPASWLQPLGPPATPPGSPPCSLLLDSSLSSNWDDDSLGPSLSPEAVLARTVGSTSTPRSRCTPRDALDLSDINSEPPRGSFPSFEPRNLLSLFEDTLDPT
Summary of the method: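 Full-length N-GST PKMYT1 (50 nM) incubated 120 min at RT with full-length GST-CDK1 (13.3 nM) and 88 μM ATP in Hepes buffer containing Mg2+, Mn2+, DTT and BSA; DMSO <10%. ADP formed was converted via ADP-Glo to luminescence; IC50 derived.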

[2] = tested on: phosphorylation of CDK1 at Thr14 in HCC1806 cells; assay: Cell lysate AlphaLISA assay measuring inhibition of phosphorylation of CDK1 Thr14; type: cell-based; details: Homo sapiens, HCC1806, 4 h, compounds incubated 4 hours, AlphaLISA SureFire Ultra CDK1 Thr14, read-out: Cellular IC50
Summary of the method: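 HCC1806 cells treated with compound for 4 h at 37 °C, lysed, and phospho-CDK1 Thr14 quantified by AlphaLISA SureFire Ultra. Data normalized to DMSO (0% inhibition) and 3 μM reference compound; IC50 derived.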

Structure (SMILES)	IC50 [1]	IC50 [2]
Cc1ccc(O)c(C)c1-c1cc(C(N)=O)cn2ccnc12 [Compound 42, 8-(3-hydroxy-2,6-dimethylphenyl)imidazo[1,2-a]pyridine-6-carboxamide]	1000 to 5000 nM	1000 to 5000 nM
Cc1c(O)cccc1-c1c(N)c(C(N)=O)cn2ccnc12 [Compound 43, 7-amino-8-(3-hydroxy-2-methylphenyl)imidazo[1,2-a]pyridine-6-carboxamide]	500 to 1000 nM	≥ 5000 nM
Cc1ccc(O)c(C)c1-c1c(N)c(C(N)=O)cn2ccnc12 [Compound 46, 7-amino-8-(3-hydroxy-2,6-dimethylphenyl)imidazo[1,2-a]pyridine-6-carboxamide]	50 to 500 nM	1000 to 5000 nM
Cc1cn2cc(C(N)=O)c(N)c(-c3cccc(O)c3C)c2n1 [Compound 47, 7-Amino-8-(3-hydroxy-2-methylphenyl)-2-methylimidazo[1,2-a]pyridine-6-carboxamide]	50 to 500 nM	≥ 5000 nM
Cc1nc2c(-c3cccc(O)c3C)c(N)c(C(N)=O)cn2c1C [Compound 48, 7-Amino-8-(3-hydroxy-2-methylphenyl)-2,3-dimethylimidazo[1,2-a]pyridine-6-carboxamide]	50 to 500 nM	≥ 5000 nM
Cc1c(O)cccc1-c1c(N)c(C(N)=O)cn2cc(C(F)(F)F)nc12 [Compound 49, 7-amino-8-(3-hydroxy-2-methylphenyl)-2-(trifluoromethyl)imidazo[1,2-a]pyridine-6-carboxamide]	50 to 500 nM	≥ 5000 nM
COC(=O)c1cnc2c(-c3cccc(O)c3C)c(N)c(C(N)=O)cn12 [Compound 50, Methyl 7-amino-6-carbamoyl-8-(3-hydroxy-2-methylphenyl)imidazo[1,2-a]pyridine-3-carboxylate]	50 to 500 nM	500 to 1000 nM
Cc1c(O)cccc1-c1c(N)c(C(N)=O)nc2c1c(C(N)=O)nn2C [Compound 55, 5-amino-4-(3-hydroxy-2-methylphenyl)-1-methyl-1H-pyrazolo[3,4-b]pyridine-3,6-dicarboxamide]	< 50 nM	50 to 500 nM
Cc1c(O)cccc1-c1c(N)c(C(N)=O)nc2c1cnn2C [Compound 56, 5-Amino-4-(3-hydroxy-2-methylphenyl)-1-methyl-pyrazolo[3,4-b]pyridine-6-carboxamide]	50 to 500 nM	≥ 5000 nM
Cc1c(O)cccc1-c1c(N)c(C(N)=O)nc2c1c(Br)nn2C [Compound 57, 5-Amino-3-bromo-4-(3-hydroxy-2-methylphenyl)-1-methyl-1H-pyrazolo[3,4-b]pyridine-6-carboxamide]	50 to 500 nM	50 to 500 nM
Cn1cc(C#N)c2c(-c3cncc(Cl)c3Cl)c(N)c(C(N)=O)nc21 [Compound 66, 5-Amino-3-cyano-4-(4,5-dichloropyridin-3-yl)-1-methyl-1H-pyrrolo[2,3-b]pyridine-6-carboxamide]	< 50 nM	50 to 500 nM
COc1c(F)cncc1-c1c(N)c(C(N)=O)nc2c1c(C#N)cn2C [Compound 67, 5-Amino-3-cyano-4-(5-fluoro-4-methoxypyridin-3-yl)-1-methyl-1H-pyrrolo[2,3-b]pyridine-6-carboxamide]	< 50 nM	< 50 nM
CCn1nc(C(=O)NC)c2c(-c3c(C)ccc(O)c3C)c(N)c(C(N)=O)nc21 [Compound 73, 5-Amino-1-ethyl-4-(3-hydroxy-2,6-dimethylphenyl)-N^3-methyl-1H-pyrazolo[3,4-b]pyridine-3,6-dicarboxamide]	< 50 nM	< 50 nM
